Measured values: patent US11028138B2, “Compositions and methods for using actin-based peptides to modulate cellular bioactivity and cellular susceptibility to intracellular pathogens” (priority 2016, dated 2021)

How the values were obtained:
HIV-1 [1] = details: pretreatment; cited from earlier work
HIV-1 [2] = details: dosages that did not affect CD4 T cell activation or induce cytotoxicity; cited from earlier work
Influenza A virus (IAV) [3] = details: A549 cells; read-out: IC50, reduction of viral replication; cited from earlier work
Influenza A virus (IAV) [4] = details: vs solvent-treated control mice; cited from earlier work
[5] = tested on: Human T lymphoblast cell A3.01; assay: N10-mediated cell killing, Propidium iodide and FITC-Annexin V staining, flow cytometry; assay type: cell-based; details: 10 uM; A3.01 cells
Protocol: FIG. 8: Human T lymphoblast cell A3.01 was treated with N10 (10 uM). N10-mediated cell killing was monitored by staining of dead cells with Propidium iodide and FITC-labelled Annexin V. Cells were analyzed by flow cytometry.
N10-mediated cell killing was monitored by staining of dead cells with Propidium iodide and FITC-labelled Annexin V. Cells were analyzed by flow cytometry.
• 5) Culture human A3.01 cells at 5×10^5 cells/ml • 6) Add peptide N10 to the cell to a final concentration of 10 uM • 7) Continue to culture cell at 37° C., maintain cell density below 1×10^6 cells/ml 8) Take out 1-2×10^5 cells, put on ice, add P.I., and FITC—Annexin V as recommended by the reagent manufacturer for dead/apoptotic cell staining. • 9) Analyzed the staining by flow cytometer.

actin = assay: Actin polymerization and depolymerization by FITC-phalloidin staining in resting CD4 T cells; assay type: cell-based
Protocol: (§1) FIG. 5: Peptide N7 and N9 modulate cell signal transduction and chemotactic cofilin and actin activity. (A) Resting memory CD4 T cells were treated with N7 for a time course, cofilin phosphorylation was measured by Western Blot. Total cofilin and GAPDH was also measured for loading control. (B) Resting CD4 T cells were treated with N9, and actin polmerization and depolymerization were measured by FITC-phalloidin staining.
(§2) Resting memory CD4 T cells were treated with N7 for a time course, and cofilin phosphorylation was measured by Western Blot. Total cofilin and GAPDH was also measured for loading control (FIG. 5A). Resting CD4 T cells were treated with N9, and actin polmerization and depolymerization were measured by FITC-phalloidin staining (FIG. 5B).

HIV [6] = assay: HIV DNA synthesis, 2-LTR circles and DNA integration in CEM-SS T cells and blood resting CD4 T cells; assay type: cell-based; details: for HIV DNA synthesis / HIV nuclear migration (2-LTR circles): peptide during 2 h infection; for HIV DNA integration: resting CD4 T cells, no T cell activation
Protocol: (§3) FIG. 6: Peptide N7 and N9 enhance HIV DNA synthesis, nuclear migration, and integration. (A) CEM-SS T cells were treated with N7 during HV infection for 2 hours, washed, and then analyzed for viral DNA synthesis and 2-LTR circles, a marker for HIV nuclear migration. (B) Blood resting CD4 T cells were similar infected, washed, and cultured without T cell activation. Viral DNA synthesis and DNA integration were analyzed.
as §3, with “CEM-SS” for “FIG. 6: Peptide N7 and N9 enhance HIV DNA synthesis, nuclear migration, and integration. (A) CEM-SS”, “migration.” for “migration. (B)”

HIV [7] = assay: HIV infection of resting CD4 T cells, viral p24 release; assay type: cell-based
Protocol: FIG. 7: Peptide N9 promotes HIV infection of resting CD4 T cells. Resting CD4 T cells were treated with N9, and then infected with HIV for 2 hours. Following infection, cells were washed, and culture in the absence of T cell activation and N9. Viral p24 release was measured. As controls, cells were culture with the addition of IL-7 (daily addition), or with a scrambled peptide, or only in the culture medium.
The ability of N9 to stimulate HIV infection of blood resting CD4 T cells was also tested. Resting CD4 T cells are relatively resistant to HIV infection. The lack of activity in the cortical actin limits viral early steps in the infection of resting T cells (Yoder et aI., 2008).

HIV-1 [8] = details: Rev-CEM-GFP; 2 h infection; 2 days post infection; viable (low PI) cells; HIV alone 0.79% (N7 experiment), 1.95% (N9 experiment)
Protocol: (A) The HIV Rev-dependent indicator cell, Rev-CEM-GFP, was not infected (+Cell) or infected with HIV-1 (+HIV), or pre-treated with peptide N7, and then infected with HIV-1 (N7+HIV). Following infection for 2 hours, cells were washed to remove the virus and the peptide. Viral replication was measured at 2 days post infection by flow cytometry. […] PI, propidium iodide, was added before flow cytometry for cytotoxicity control. GFP+ cells were counted only when the cells are viable (low PI staining). (B) Effects of peptide N9 were similarly measured.
The HIV Rev-dependent indicator cell, Rev-CEM-GFP, was not infected (+Cell) or infected with HIV-1 (+HIV), or pre-treated with peptide N7, and then infected with HIV-1 (N7+HIV). Following infection for 2 hours, cells were washed to remove the virus and the peptide. Viral replication was measured at 2 days post infection by flow cytometry.
PI, propidium iodide, was added before flow cytometry for cytotoxicity control. GFP+ cells were counted only when the cells are viable (low PI staining).

surface CXCR4 receptors = assay: Surface receptor staining and flow cytometry after peptide stimulation (CXCR4); assay type: cell-based, human; details: T cells exposed to peptide, 10 uM, 5 to 120 min
Protocol: (§4) FIG. 4: Up-regulation of cell surface receptors by N7. CEM-SS T cells or blood resting CD4 T cells were stimulated with peptide N7 for a time course. Effects on surface CD4, CXCR4 density were measured by anti-CD4 or anti-CXCR4, followed by flow cytometry.
(§5) • 1) Culture human CEM-SS T cells at 5×10^5 cells/ml • 2) Add peptide N7 to the cell to a final concentration of 10 uM at various times from 5 min to 120 min (e. g. 5, 10, 15, 30, 45, 60, 120 min). • 3) Take out 1-2×10^5 cells, put on ice, perform routine surface staining using FITC-, PE- or PE-cy5-labelled specific antibodies against cell receptors as recommended by the reagent manufacturer for cell surface staining. • 4) Analyzed the staining by flow cytometer.

surface CD4 receptor = assay: Surface receptor staining and flow cytometry after peptide stimulation (CD4); assay type: cell-based, human; details: T cells exposed to peptide, 10 uM, 5 to 120 min
Protocol: as §4, §5

cofilin = assay: Cofilin phosphorylation by Western Blot in resting memory CD4 T cells; assay type: cell-based; details: time course
Protocol: as §1, §2

In the case of `C=C1[C@@H](C)[C@H]2[C@H](Cc3ccccc3)NC(=O)[C@]23[C@H](OC(C)=O)/C=C/[C@@](C)(O)C(=O)[C@@H](C)C/C=C/[C@H]3[C@@H]1O` [CCD, cytochalasin D], the “Reduction of nuclear accumulation of late RT products” value (HIV-1 [1]) is given as 25 fold.

For `O=C1CSC(c2cccc(Br)c2)N1c1cc(Cl)ccc1O` (stereo not shown) [CK-548], the HIV-1 replication (HIV-1 [2]) is given as “dramatically reduced”.

For `CCN(CC)CCCC(C)Nc1nc(C)cc(Nc2ccc3nc(C)cc(N)c3c2)n1` (stereo not shown) [NSC23766], the IC50 (Influenza A virus (IAV) [3]) is listed as 22 µM, the Body weights (Influenza A virus (IAV) [4]) is listed as “increased” and the Survivability (Influenza A virus (IAV) [4]) is listed as “higher”. The “Titer of IAV in lung tissue” value (Influenza A virus (IAV) [4]) was “reduce titer”.

With “RRRRRRRR(G/A)0-20AGRDLTDYLMKILTERGYSF [Peptide N10]” the Cell killing [5] was “killing of T cells”.

With “RRRRRRRR(G/A)0-20HTVRIYEGYALRHAILRLDL [Peptide N9]” the Actin polymerization/depolymerization (actin) was “modulate”, the “HIV DNA synthesis” value (HIV [6]) was “enhance” and the “HIV nuclear migration (2-LTR circles)” value (HIV [6]) was “enhance”. For the same compound, the “HIV DNA integration” value (HIV [6]) was “enhance”, the “Stimulation of viral infection compared with IL-7 (administered daily)” value (HIV [7]; early time) was “more potent” and the “HIV infection of resting T cells (p24 release)” value (HIV [7]; single-dosage treatment prior to infection, no T cell activation or cytokine stimulation) was “drastically stimulated”. The “HIV infection, percentage of GFP+ cells” value (HIV-1 [8]) was 14.07%.

With “RRRRRRRR(G/A)0-20QIMFETENTPAMYVAIQAVL [Peptide N7]” the “Surface CXCR4 receptor density” value (surface CXCR4 receptors) was “drastically up-regulate”, the “Surface CD4 receptor density” value (surface CD4 receptor) was “moderate up-regulation” and the Cofilin activation (cofilin) was “briefly triggers cofilin activation”. For the same compound, the Actin polymerization/depolymerization (actin) was “actin depolymerization”, the “HIV DNA synthesis” value (HIV [6]) was “enhance” and the “HIV nuclear migration (2-LTR circles)” value (HIV [6]) was “enhance”. The “HIV DNA integration” value (HIV [6]) was “enhance” and the “HIV infection, percentage of GFP+ cells” value (HIV-1 [8]) was 15.5%.
